Holding throughout (assay): Growth in liquid media in presence of test compound
Common to all, as to format: cell-based

For assay [1], the system named is Mycobacterium tuberculosis (H37Rv).
The test system of assay [2] is Escherichia coli (ATCC 25922).
For assay [3], the system named is Pseudomonas aeruginosa (ATCC 27853).
In assay [4] the test system is Candida albicans (ATCC 90028).
The test system of assay [5] is Staphylococcus aureus (ATCC 25923).
For assay [6], the system named is Streptococcus pyogenes (ATCC 19615).

SMILES strings stand for the structures.

Regarding `CC1(C)C2CC3OB([C@H](CCc4ccccc4)CNC(=O)[C@H](N)CCCCN)O[C@]3(C)C1C2` (stereo partly drawn) [Compound 20], the figures for the “Growth in the presence of test compound, M. tuberculosis” value (from here on “Growth … M. tuberculosis”) in assay [1] (5 mg/L), in assay [1] (50 mg/L) and in assay [1] (500 mg/L) were “+”, “−” and “−”, respectively. Also, the “Growth in the presence of test compound, E. coli” value (“Growth in the presence … E. coli” below) in assay [2] (5 mg/L), in assay [2] (50 mg/L) and in assay [2] (500 mg/L) was “+” in each case. For the same compound, the figures for the “Growth in the presence of test compound, P. aeruginosa” value (shortened to “Growth … P. aeruginosa”) in assay [3] (5 mg/L), in assay [3] (50 mg/L) and in assay [3] (500 mg/L) were “+”, “±” and “±”, respectively. Further, the “Growth in the presence of test compound, C. albicans” value (shortened to “Growth in the presence … C. albicans”) was “+” in assay [4] (5 mg/L), “±” in assay [4] (50 mg/L) and “±” in assay [4] (500 mg/L). The figures for the “Growth in the presence of test compound, S. aureus” value (“Growth in the presence … S. aureus” for short) in assay [5] (5 mg/L), in assay [5] (50 mg/L) and in assay [5] (500 mg/L) were “+”, “−” and “±”, respectively. Further, the “Growth in the presence of test compound, S. pyogenes” value (from here on “Growth in the presence … S. pyogenes”) in assay [6] (5 mg/L) was “+”; in assay [6] (50 mg/L), “±”; in assay [6] (500 mg/L), “±”.
Consider `CC1(C)C2CC3OB([C@@H](CNC(=O)[C@@H](N)CCCCN)Cc4ccc5ccccc5c4)O[C@]3(C)C1C2` (stereo partly drawn) [Compound 21], for which the “Growth … M. tuberculosis” value in assay [1] (5 mg/L), in assay [1] (50 mg/L) and in assay [1] (500 mg/L) was “−” in each case. Moreover, the “Growth in the presence … E. coli” value in assay [2] (5 mg/L), in assay [2] (50 mg/L) and in assay [2] (500 mg/L) was “+” throughout. The “Growth … P. aeruginosa” value in assay [3] (5 mg/L) was “+”; in assay [3] (50 mg/L), “+”; in assay [3] (500 mg/L) it was “±”. Also, the “Growth in the presence … C. albicans” value is given as “+” in assay [4] (5 mg/L), “+” in assay [4] (50 mg/L) and “±” in assay [4] (500 mg/L). Moreover, the “Growth in the presence … S. aureus” value is “+” in assay [5] (5 mg/L), “±” in assay [5] (50 mg/L) and “+” in assay [5] (500 mg/L). The “Growth in the presence … S. pyogenes” value in assay [6] (5 mg/L) is “+”; in assay [6] (50 mg/L), “+”; in assay [6] (500 mg/L), “±”.
In the case of `CC(NC(=O)C(N)CCCCN)C(Cc1ccccc1)B1OC2CC3CC(C3(C)C)C2(C)O1` (stereo not drawn) [Compound 26], the “Growth … M. tuberculosis” value in assay [1] (5 mg/L), in assay [1] (50 mg/L) and in assay [1] (500 mg/L) was “−” in each case. In addition, the “Growth in the presence … E. coli” value in assay [2] (5 mg/L) is given as “+”; in assay [2] (50 mg/L), “+”; in assay [2] (500 mg/L), “−”. Besides, the results for the “Growth … P. aeruginosa” value in assay [3] (5 mg/L), in assay [3] (50 mg/L) and in assay [3] (500 mg/L) were “+”, “+” and “−”, respectively. The “Growth in the presence … C. albicans” value in assay [4] (5 mg/L) is listed as “+”; in assay [4] (50 mg/L), “+”; in assay [4] (500 mg/L), “−”. For the same compound, the “Growth in the presence … S. aureus” value was “+” in assay [5] (5 mg/L), “+” in assay [5] (50 mg/L) and “−” in assay [5] (500 mg/L). Also, the “Growth in the presence … S. pyogenes” value in assay [6] (5 mg/L) is on record as “+”; in assay [6] (50 mg/L) it was “+”; in assay [6] (500 mg/L), “−”.
Take `CC(B1OC2CC3CC(C3(C)C)C2(C)O1)C(Cc1ccccc1)NC(=O)C(N)CCCCN` (stereo not drawn) [Compound 30]: the “Growth … M. tuberculosis” value in assay [1] (5 mg/L) is reported as “+”; in assay [1] (50 mg/L) it was “−”; in assay [1] (500 mg/L), “−”. Moreover, the “Growth in the presence … E. coli” value in assay [2] (5 mg/L) is recorded as “+”; in assay [2] (50 mg/L), “+”; in assay [2] (500 mg/L) it was “−”. The “Growth … P. aeruginosa” value in assay [3] (5 mg/L) is “+”; in assay [3] (50 mg/L), “+”; in assay [3] (500 mg/L), “−”. The “Growth in the presence … C. albicans” value in assay [4] (5 mg/L) is recorded as “+”; in assay [4] (50 mg/L), “+”; in assay [4] (500 mg/L), “−”. The results for the “Growth in the presence … S. aureus” value in assay [5] (5 mg/L), in assay [5] (50 mg/L) and in assay [5] (500 mg/L) were “+”, “+” and “−”, respectively. Moreover, the “Growth in the presence … S. pyogenes” value was “+” in assay [6] (5 mg/L), “+” in assay [6] (50 mg/L) and “−” in assay [6] (500 mg/L).
Regarding `CC1(C)C2CC3OB(C(Cc4ccccc4)C(Cc4ccccc4)NC(=O)C(N)CCCCN)OC3(C)C1C2` (stereo not drawn) [Compound 31], the “Growth … M. tuberculosis” value in assay [1] (5 mg/L) is listed as “+”; in assay [1] (50 mg/L), “−”; in assay [1] (500 mg/L), “−”. Further, the “Growth in the presence … E. coli” value in assay [2] (5 mg/L) was “+”; in assay [2] (50 mg/L), “+”; in assay [2] (500 mg/L), “−”. For the same compound, the “Growth … P. aeruginosa” value was “+” in assay [3] (5 mg/L), “+” in assay [3] (50 mg/L) and “−” in assay [3] (500 mg/L). Moreover, the “Growth in the presence … C. albicans” value in assay [4] (5 mg/L) was “+”; in assay [4] (50 mg/L) it was “+”; in assay [4] (500 mg/L), “−”. Moreover, the entries for the “Growth in the presence … S. aureus” value in assay [5] (5 mg/L), in assay [5] (50 mg/L) and in assay [5] (500 mg/L) were “+”, “+” and “−”, respectively. In addition, the “Growth in the presence … S. pyogenes” value in assay [6] (5 mg/L) is “+”; in assay [6] (50 mg/L) it was “+”; in assay [6] (500 mg/L), “−”.
For the compound `CC(B1OC2CC3CC(C3(C)C)C2(C)O1)C(Cc1ccccc1)NC(=O)C(Cc1ccccc1)NC(=O)C(N)CCCCN` (stereo not drawn) [Compound 36], the “Growth … M. tuberculosis” value was “+” in assay [1] (5 mg/L), “−” in assay [1] (50 mg/L) and “−” in assay [1] (500 mg/L). Moreover, the “Growth in the presence … E. coli” value is “+” in assay [2] (5 mg/L), “+” in assay [2] (50 mg/L) and “−” in assay [2] (500 mg/L). Further, the “Growth … P. aeruginosa” value is listed as “+” in assay [3] (5 mg/L), “+” in assay [3] (50 mg/L) and “−” in assay [3] (500 mg/L). For the same compound, the “Growth in the presence … C. albicans” value is given as “+” in assay [4] (5 mg/L), “+” in assay [4] (50 mg/L) and “±” in assay [4] (500 mg/L). Moreover, the “Growth in the presence … S. aureus” value was “+” in assay [5] (5 mg/L), “+” in assay [5] (50 mg/L) and “−” in assay [5] (500 mg/L). Moreover, the figures for the “Growth in the presence … S. pyogenes” value in assay [6] (5 mg/L), in assay [6] (50 mg/L) and in assay [6] (500 mg/L) were “+”, “+” and “−”, respectively.
Consider `NCCCC[C@H](N)C(=O)NC[C@@H](Cc1ccccc1)B(O)O` [Compound 38], for which the “Growth … M. tuberculosis” value in assay [1] (5 mg/L), in assay [1] (50 mg/L) and in assay [1] (500 mg/L) was “−” each time. Besides, the figures for the “Growth in the presence … E. coli” value in assay [2] (5 mg/L), in assay [2] (50 mg/L) and in assay [2] (500 mg/L) were “+”, “+” and “±”, respectively. The “Growth … P. aeruginosa” value in assay [3] (5 mg/L), in assay [3] (50 mg/L) and in assay [3] (500 mg/L) was “+” each time. The figures for the “Growth in the presence … C. albicans” value in assay [4] (5 mg/L), in assay [4] (50 mg/L) and in assay [4] (500 mg/L) were “+”, “+” and “±”, respectively. Moreover, the “Growth in the presence … S. aureus” value in assay [5] (5 mg/L) was “+”; in assay [5] (50 mg/L), “+”; in assay [5] (500 mg/L), “±”. In addition, the “Growth in the presence … S. pyogenes” value is on record as “+” in assay [6] (5 mg/L), “+” in assay [6] (50 mg/L) and “−” in assay [6] (500 mg/L).
In the case of `CC1(C)C2CC3OB([C@@H](CNC(=O)[C@H](N)Cc4ccccc4)Cc4ccccc4)O[C@]3(C)C1C2` (stereo partly drawn) [Compound 41], the figures for the “Growth … M. tuberculosis” value in assay [1] (5 mg/L), in assay [1] (50 mg/L) and in assay [1] (500 mg/L) were “+”, “±” and “±”, respectively. Moreover, the “Growth in the presence … E. coli” value in assay [2] (5 mg/L), in assay [2] (50 mg/L) and in assay [2] (500 mg/L) was “+” throughout. Besides, the “Growth … P. aeruginosa” value in assay [3] (5 mg/L), in assay [3] (50 mg/L) and in assay [3] (500 mg/L) was “+” in each case. The “Growth in the presence … C. albicans” value was “+” in assay [4] (5 mg/L), “±” in assay [4] (50 mg/L) and “±” in assay [4] (500 mg/L). The results for the “Growth in the presence … S. aureus” value in assay [5] (5 mg/L), in assay [5] (50 mg/L) and in assay [5] (500 mg/L) were “+”, “+” and “±”, respectively. Also, the “Growth in the presence … S. pyogenes” value in assay [6] (5 mg/L) is recorded as “+”; in assay [6] (50 mg/L), “+”; in assay [6] (500 mg/L), “±”.

For the origin of these results see patent publication US20150018311A1, “THERAPEUTIC BORON-CONTAINING COMPOUNDS” (priority 2012, published 2015).
